Values of other authors as cited in publication PMC5152921, “Evolutionary and Functional Diversification of the Vitamin D Receptor-Lithocholic Acid Partnership” (PLoS ONE, 2016).

Test system: all eight VDRs tested
Set-up: method as in PMID 25279795, PMID 25855982
Conditions: transient transactivation assays; cited from earlier work

C=C1/C(=C\C=C2/CCC[C@]3(C)[C@@H]([C@H](C)CCCC(C)(C)O)CC[C@@H]23)C[C@@H](O)C[C@@H]1O [1,25D3, 1α,25-dihydroxyvitamin D3]
VDR transactivation: activates all eight VDRs tested
